Source: the Kinase Knowledgebase extract (Sharma et al. 2016)

Key:
EGFR (human) [1] = biological target: EGFR (human) (UniProt P00533)
EGFR (human) [2] = biological target: EGFR (human) (UniProt P00533); settings: a431

Chain of EGFR (human) (P00533 whole entry, looked up): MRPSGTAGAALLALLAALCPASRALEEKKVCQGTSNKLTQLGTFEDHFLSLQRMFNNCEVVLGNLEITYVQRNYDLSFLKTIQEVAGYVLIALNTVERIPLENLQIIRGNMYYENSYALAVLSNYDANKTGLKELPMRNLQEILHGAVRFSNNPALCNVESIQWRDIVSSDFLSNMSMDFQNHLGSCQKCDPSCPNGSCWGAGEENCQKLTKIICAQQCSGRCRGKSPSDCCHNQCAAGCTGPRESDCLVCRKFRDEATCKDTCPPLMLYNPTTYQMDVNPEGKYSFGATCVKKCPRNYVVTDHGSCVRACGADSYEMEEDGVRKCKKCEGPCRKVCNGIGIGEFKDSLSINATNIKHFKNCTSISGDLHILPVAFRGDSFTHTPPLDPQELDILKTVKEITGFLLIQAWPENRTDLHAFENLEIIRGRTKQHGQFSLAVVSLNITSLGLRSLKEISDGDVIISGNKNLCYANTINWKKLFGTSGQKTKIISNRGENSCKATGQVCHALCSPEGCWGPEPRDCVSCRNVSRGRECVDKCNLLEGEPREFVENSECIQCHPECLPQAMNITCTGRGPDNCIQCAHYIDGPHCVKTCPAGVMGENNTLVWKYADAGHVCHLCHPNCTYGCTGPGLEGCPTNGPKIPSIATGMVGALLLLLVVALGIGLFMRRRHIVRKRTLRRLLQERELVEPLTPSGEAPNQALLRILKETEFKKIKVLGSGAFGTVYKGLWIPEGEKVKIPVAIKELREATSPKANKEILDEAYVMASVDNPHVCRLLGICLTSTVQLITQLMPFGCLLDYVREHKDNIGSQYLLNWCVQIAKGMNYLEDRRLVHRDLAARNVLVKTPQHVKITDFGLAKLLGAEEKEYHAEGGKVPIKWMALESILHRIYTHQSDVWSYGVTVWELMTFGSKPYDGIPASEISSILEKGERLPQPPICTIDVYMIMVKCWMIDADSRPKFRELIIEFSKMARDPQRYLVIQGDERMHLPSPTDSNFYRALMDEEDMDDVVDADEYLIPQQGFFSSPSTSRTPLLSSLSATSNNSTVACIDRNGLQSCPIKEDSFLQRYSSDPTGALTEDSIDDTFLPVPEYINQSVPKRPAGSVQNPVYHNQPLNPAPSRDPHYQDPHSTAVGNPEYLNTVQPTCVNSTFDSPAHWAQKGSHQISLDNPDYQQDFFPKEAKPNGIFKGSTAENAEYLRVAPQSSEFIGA

| Compound | IC50 (EGFR (human) [1]) | IC50 (EGFR (human) [2]) |
| --- | --- | --- |
| O=S1(=O)CCC(O)(CNCc2cn(-c3ccc4ncnc(Nc5ccc(F)c(Cl)c5)c4c3)cc2CCO)CC1 | 0.076 µM |  |
| CCN(CC)Cc1cn(-c2ccc3ncnc(Nc4ccc(OCc5ccccn5)c(Cl)c4)c3c2)cc1CCO | 0.021 µM |  |
| Fc1cccc(COc2ccc(Nc3ncnc4ccc(-c5ccn(CCN6CCN(C7CC7)CC6)c5)cc34)cc2Cl)c1 |  | 1.26 µM |
| COCCNCc1cc(-c2ccc3ncnc(Nc4ccc(OCc5cccc(F)c5)c(Cl)c4)c3c2)c[nH]1 | 0.031 µM |  |
| O=C(Cn1ccc(-c2ccc3ncnc(Nc4ccc(OCc5cccc(F)c5)c(Cl)c4)c3c2)c1)N1CCC(N2CCOCC2)CC1 |  | 0.853 µM |
| OCCc1cn(-c2ccc3ncnc(Nc4ccc(OCc5cccc(F)c5)c(Cl)c4)c3c2)cc1CNCCN1CCOCC1 | 0.071 µM |  |
| CS(=O)(=O)CCNCC(O)Cn1ccc(-c2ccc3ncnc(Nc4ccc(OCc5cccc(F)c5)c(Cl)c4)c3c2)c1 (centres undefined) | 0.017 µM |  |
| OCC1CCCN1CCn1ccc(-c2ccc3ncnc(Nc4ccc(OCc5cccc(F)c5)c(Cl)c4)c3c2)c1 (centres undefined) | 0.06 µM |  |
| O=S1(=O)CCC(NCC(O)Cn2ccc(-c3ccc4ncnc(Nc5ccc(OCc6cccc(F)c6)c(Cl)c5)c4c3)c2)CC1 (centres undefined) |  | 0.468 µM |
| O=S1(=O)CCC(NCC(O)Cn2ccc(-c3ccc4ncnc(Nc5ccc6c(cnn6Cc6cccc(F)c6)c5)c4c3)c2)CC1 (centres undefined) |  | 0.922 µM |
| Fc1cccc(Cn2ncc3cc(Nc4ncnc5ccc(-c6ccn(CCN7CCCC7)c6)cc45)ccc32)c1 |  | 0.612 µM |
| OCCN1CCN(CC(O)Cn2ccc(-c3ccc4ncnc(Nc5ccc(OCc6cccc(F)c6)c(Cl)c5)c4c3)c2)CC1 (centres undefined) |  | 0.714 µM |
| CS(=O)(=O)CCNCc1cc(-c2ccc3ncnc(Nc4ccc5c(cnn5Cc5cccc(F)c5)c4)c3c2)c[nH]1 | 0.004 µM |  |
| O=C(NCCCN1CCOCC1)c1cn(-c2ccc3ncnc(Nc4ccc5c(cnn5Cc5ccc(F)cc5)c4)c3c2)cc1CCO | 0.115 µM |  |
| O=C(NCCCN1CCOCC1)c1cn(-c2ccc3ncnc(Nc4ccc(OCc5ccccn5)c(Cl)c4)c3c2)cc1CCO | 0.096 µM |  |
| CCN(CC)C(=O)Cn1ccc(-c2ccc3ncnc(Nc4ccc(OCc5cccc(F)c5)c(Cl)c4)c3c2)c1 | 0.14 µM |  |
| CN(C)Cc1cn(-c2ccc3ncnc(Nc4ccc5c(cnn5Cc5cccc(F)c5)c4)c3c2)cc1CCO | 0.015 µM |  |
| OC1CCC(NCC(O)Cn2ccc(-c3ccc4ncnc(Nc5ccc(OCc6cccc(F)c6)c(Cl)c5)c4c3)c2)CC1 (centres undefined) | 0.049 µM |  |
| Fc1cccc(Cn2ncc3cc(Nc4ncnc5ccc(-c6cc[nH]c6)cc45)ccc32)c1 | 0.003 µM |  |
| O=C(NCCN1CCCC1)c1cn(-c2ccc3ncnc(Nc4ccc5c(cnn5Cc5ccc(F)cc5)c4)c3c2)cc1CCO | 0.016 µM |  |

| Compound | IC50 (EGFR (human) [1]) | IC50 (EGFR (human) [2]) |
| --- | --- | --- |
| CCN(CC)CCNC(=O)c1cn(-c2ccc3ncnc(Nc4ccc5c(cnn5Cc5ccc(F)cc5)c4)c3c2)cc1CCO | 0.156 µM |  |
| O=C(Cn1ccc(-c2ccc3ncnc(Nc4ccc(OCc5cccc(F)c5)c(Cl)c4)c3c2)c1)NC1CC1 | 0.013 µM |  |
| CS(=O)(=O)CCNCc1cn(-c2ccc3ncnc(Nc4ccc(F)c(Cl)c4)c3c2)cc1CCO | 0.065 µM |  |
| Fc1cccc(COc2ccc(Nc3ncnc4ccc(-n5cc(CNCCN6CCCCC6)c(C(F)(F)F)c5)cc34)cc2Cl)c1 | 0.01 µM |  |
| Fc1cccc(COc2ccc(Nc3ncnc4ccc(-c5ccn(C[C@H]6CCNC6)c5)cc34)cc2Cl)c1 | 0.638 µM |  |
| O=C(Cn1ccc(-c2ccc3ncnc(Nc4ccc(OCc5cccc(F)c5)c(Cl)c4)c3c2)c1)N1CCCCC1 | 0.066 µM |  |
| Fc1cccc(COc2ccc(Nc3ncnc4ccc(-c5c[nH]c(CN6CCC(N7CCCCC7)CC6)c5)cc34)cc2Cl)c1 | 0.066 µM |  |
| OC1(Cn2ccc(-c3ccc4ncnc(Nc5ccc(OCc6cccc(F)c6)c(Cl)c5)c4c3)c2)CCNCC1 | 0.012 µM |  |
| O=S1(=O)CCC(CNCc2cn(-c3ccc4ncnc(Nc5ccc6c(cnn6Cc6cccc(F)c6)c5)c4c3)cc2CCO)CC1 | 0.012 µM |  |
| O=C(c1cn(-c2ccc3ncnc(Nc4ccc(OCc5ccccn5)c(Cl)c4)c3c2)cc1CCO)N1CCC(N2CCCCC2)CC1 | 0.105 µM |  |
| O=C(NCCN1CCCCC1)c1cn(-c2ccc3ncnc(Nc4ccc(OCc5cccc(F)c5)c(Cl)c4)c3c2)cc1CCO | 0.008 µM |  |
| CC(C)(C)OC(=O)n1cccc1-c1ccc2ncnc(Nc3ccc(OCc4cccc(F)c4)c(Cl)c3)c2c1 | 0.028 µM |  |
| CS(=O)(=O)n1ccc(-c2ccc3ncnc(Nc4ccc(OCc5cccc(F)c5)c(Cl)c4)c3c2)c1 | 0.014 µM |  |
| CCN(CC)CCNCc1cn(-c2ccc3ncnc(Nc4ccc(OCc5cccc(F)c5)c(Cl)c4)c3c2)cc1C(F)(F)F | 0.053 µM |  |
| CN1CCN(Cc2cn(-c3ccc4ncnc(Nc5ccc(OCc6cccc(F)c6)c(Cl)c5)c4c3)cc2CCO)CC1 | 0.042 µM |  |
| CN(C)Cc1cn(-c2ccc3ncnc(Nc4ccc(OCc5cccc(F)c5)c(Cl)c4)c3c2)cc1CCO | 0.039 µM |  |
| O=C(c1cn(-c2ccc3ncnc(Nc4ccc(OCc5ccccn5)c(Cl)c4)c3c2)cc1CCO)N1CCCCC1 | 0.095 µM |  |
| Fc1cccc(COc2ccc(Nc3ncnc4ccc(-n5cc(CN6CCOCC6)c(CN6CCOCC6)c5)cc34)cc2Cl)c1 | 0.376 µM |  |
| Fc1cccc(COc2ccc(Nc3ncnc4ccc(-c5c[nH]c(CNCCN6CCOCC6)c5)cc34)cc2Cl)c1 | 0.102 µM |  |
